Results published in patent publication US5888993A, “Vanadium compounds in the treatment of elevated blood sugar levels” (The University of British Columbia, priority 1997, dated 1999).
Several values for one entry are separate records, joined by “and”; a condition that tells them apart may be missing. Equal values may be shown once.

Legend:
[1] = log p (partition coefficient); format: physicochemical
diabetic rats [2] = test: BMOV in drinking water, STZ diabetic rats; format: in vivo, rat
diabetic rats [3] = test: BMOV single oral gavage, STZ diabetic rats; format: in vivo, rat; conditions: 160 μmol/kg
diabetic rats [4] = test: Comparison of BMOV and vanadyl kojate, acute time course of plasma glucose, rats made diabetic with STZ; format: in vivo, rat; design: plasma glucose level: unit not given here
Protocol: Using BMOV and Vanadyl Kojate as prepared in Examples 1 and 2 above, the relative efficacy of the two compounds was assessed using rats made diabetic with STZ. Again the animals were divided into responder and non-responder groups. For a 0.063 mmol V/kg ip injection, BMOV gave a 50:50 split between responder and non-responder groups whereas for vanadyl kojate the ratio was 60:40. On oral gavage of 0.55 mmol V/kg the responder:non-responder ratios were 50:50 and 57:43 respectively (n=10). However over a 12 day test period, there was a 100% response in terms of blood glucose reduction for diabetic rats receiving vanadyl kojate orally.

SHR rats = test: Blood pressure reduction by BMOV, spontaneously hypertensive rats; format: in vivo, rat; conditions: SHRO, 0.75 mg/ml in drinking water
Protocol: (§1) 11 SHR and 12 WKY rats (all male) were procured at 4 weeks of age from Charles River, Canada. The animals were divided into four experimental groups: SHR (untreated n=5), SHRO (BMOV treated n=6), WKY (untreated n=8) and WKYO (BMOV treated n=4). Chronic BMOV treatment was commenced on the SHRO and WKYO groups at 5 weeks of age. The rats were given BMOV (0.75 mg/ml) ad libitum in the drinking water.
Once at week 5 and then starting at week 8, weekly measurements of blood pressure were done on all groups for the next 3 weeks. Blood samples were also collected via the tail vein during the weeks mentioned above. These were centrifuged and plasma was collected for subsequent glucose and insulin analyses. Chronic blood pressure measurements were done on conscious rats, using the tail cuff method without external preheating. Initial experiments to validate the tail cuff method by comparing the readings obtained with it to those obtained by direct arterial cannulation were conducted.

STZ-diabetic rats = test: Comparison of BMOV and ETHYLBMOV, plasma glucose and insulin in STZ-diabetic rats; format: in vivo, rat; conditions: 0.6 mmol kg^-1, one oral gavage, 24 hour period
Protocol: Animal studies were conducted in STZ-diabetic rats comparing doses of 0.6 mmol kg^-1 for VO(ma)2 (BMOV) and VO(ema)2 (ETHYLVMOV). FIGS. 8 and 9 respectively show plasma glucose and plasma insulin values recorded over 24 hour periods after one oral gavage of a water solution of either BMOV or ETHYLBMOV, in order to compare their efficacies.

non diabetic rats = test: Previous laboratory studies of BMOV in non diabetic rats; format: in vivo, rat; conditions: 0.75 mg/ml
Protocol: as §1

SMILES: Cc1occc(=O)c1[O-].Cc1occc(=O)c1[O-].[O]=[V+2] [BMOV, Bis(maltolato)oxovanadium(IV)]
- log p [1]: 0.12
- fluid intake (diabetic rats [2]; 0.46-0.92 mmol/kg): decreased to normal
- blood glucose reduction (diabetic rats [2]; 0.46-0.92 mmol/kg (150-300 mg/kg), four diabetic rats): reduced blood glucose in four diabetic rats into the normal range
- rats responding with a decrease in blood glucose (diabetic rats [3]): Six out of six
- time of peak fall in blood glucose (diabetic rats [3]): 5 h
- time for return of blood glucose to diabetic levels (diabetic rats [3]; usually): ≤ 12 h
- plasma glucose level (diabetic rats [4]; i.p. 0.063 mmol/kg, nonresponders (DTN), 0 h): 19.42
- plasma glucose level (diabetic rats [4]; i.p. 0.063 mmol/kg, nonresponders (DTN), 1 h): 18.82
- plasma glucose level (diabetic rats [4]; i.p. 0.063 mmol/kg, nonresponders (DTN), 2 h): 18.51
- plasma glucose level (diabetic rats [4]; i.p. 0.063 mmol/kg, nonresponders (DTN), 4 h): 17.94
- plasma glucose level (diabetic rats [4]; i.p. 0.063 mmol/kg, nonresponders (DTN), 6 h): 18.08
- plasma glucose level (diabetic rats [4]; i.p. 0.063 mmol/kg, nonresponders (DTN), 8 h): 17.77
- plasma glucose level (diabetic rats [4]; i.p. 0.063 mmol/kg, nonresponders (DTN), 12 h): 19.07
- plasma glucose level (diabetic rats [4]; i.p. 0.063 mmol/kg, nonresponders (DTN), 24 h): 19.01
- plasma glucose level (diabetic rats [4]; i.p. 0.063 mmol/kg, responders (DTR), 0 h): 17.51
- plasma glucose level (diabetic rats [4]; i.p. 0.063 mmol/kg, responders (DTR), 1 h): 14.77
- plasma glucose level (diabetic rats [4]; i.p. 0.063 mmol/kg, responders (DTR), 2 h): 12.65
- plasma glucose level (diabetic rats [4]; i.p. 0.063 mmol/kg, responders (DTR), 4 h): 10.6
- plasma glucose level (diabetic rats [4]; i.p. 0.063 mmol/kg, responders (DTR), 6 h): 10.28
- plasma glucose level (diabetic rats [4]; i.p. 0.063 mmol/kg, responders (DTR), 8 h): 9.08
- plasma glucose level (diabetic rats [4]; i.p. 0.063 mmol/kg, responders (DTR), 12 h): 9.38
- plasma glucose level (diabetic rats [4]; i.p. 0.063 mmol/kg, responders (DTR), 24 h): 7.15
- plasma glucose level (diabetic rats [4]; oral gavage 0.55 mmol/kg, nonresponders (DTN), 0 h): 19.31
- plasma glucose level (diabetic rats [4]; oral gavage 0.55 mmol/kg, nonresponders (DTN), 1 h): 18.05
- plasma glucose level (diabetic rats [4]; oral gavage 0.55 mmol/kg, nonresponders (DTN), 2 h): 17.57
- plasma glucose level (diabetic rats [4]; oral gavage 0.55 mmol/kg, nonresponders (DTN), 4 h): 16.92
- plasma glucose level (diabetic rats [4]; oral gavage 0.55 mmol/kg, nonresponders (DTN), 6 h): 16.43
- plasma glucose level (diabetic rats [4]; oral gavage 0.55 mmol/kg, nonresponders (DTN), 8 h): 15.02
- plasma glucose level (diabetic rats [4]; oral gavage 0.55 mmol/kg, nonresponders (DTN), 12 h): 17.17
- plasma glucose level (diabetic rats [4]; oral gavage 0.55 mmol/kg, nonresponders (DTN), 24 h): 18.07
- plasma glucose level (diabetic rats [4]; oral gavage 0.55 mmol/kg, responders (DTR), 0 h): 18.09
- plasma glucose level (diabetic rats [4]; oral gavage 0.55 mmol/kg, responders (DTR), 1 h): 14.55
- plasma glucose level (diabetic rats [4]; oral gavage 0.55 mmol/kg, responders (DTR), 2 h): 13.13
- plasma glucose level (diabetic rats [4]; oral gavage 0.55 mmol/kg, responders (DTR), 4 h): 11.68
- plasma glucose level (diabetic rats [4]; oral gavage 0.55 mmol/kg, responders (DTR), 6 h): 9.47
- plasma glucose level (diabetic rats [4]; oral gavage 0.55 mmol/kg, responders (DTR), 8 h): 9.27
- plasma glucose level (diabetic rats [4]; oral gavage 0.55 mmol/kg, responders (DTR), 12 h): 7.01
- plasma glucose level (diabetic rats [4]; oral gavage 0.55 mmol/kg, responders (DTR), 24 h): 6.31
- development of high blood pressure, in words (SHR rats): prevent the development of high blood pressure
- decrease in systolic blood pressure (SHR rats; tail cuff): 25-30 mmHg
- plasma glucose, difference BMOV vs ETHYLBMOV (STZ-diabetic rats): statistically insignificant
- plasma insulin, difference BMOV vs ETHYLBMOV (STZ-diabetic rats): statistically insignificant
- plasma insulin levels (non diabetic rats): sufficient to lower plasma insulin levels
- water solubility, in words (Water solubility): quite water-soluble
- water solubility (Water solubility; water): about 7 mM and ~2 mg/mL
